Measurements published in ChEMBL document CHEMBL1129172, “Synthesis of water soluble prodrug of DMP323” (Bioorg Med Chem Lett, 1996).
Converted amounts (≈) assume the structure as drawn.

Experiments:
[1] = Compound was evaluated for oral bioavailability in dogs; 37-38 %; type: ADME, organism-based, Canis lupus familiaris; conditions: dog, in vivo
[2] = Solubility in water.; type: physicochemical; conditions: read-out: S

## O=C1N(Cc2ccc(CO)cc2)[C@H](Cc2ccccc2)[C@H](O)[C@@H](O)[C@@H](Cc2ccccc2)N1Cc1ccc(CO)cc1 [DMP-323]
[1]
  bioavailability: 38%
[2]
  solubility: 10 µg/mL (≈ 17.6 µM)
